Measured values from ChEMBL document CHEMBL1201862, “PubChem BioAssay data set” (2004).
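48-hour exposure; five concentrations; linearly interpolated endpoints. Here, GI50 denotes the concentration required for 50% inhibition of growth.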 Active and inactive are the calls of the source. Cut-off read from the data, not from the text of the source: active = GI50 up to about 1.1 µM and inactive = higher.

Assays:
Assay in all cases: inhibition of tumour cell growth, NCI panel, 48 h
KM-20L2 = system: KM-20L2
HOP-62 = system: HOP-62
SNB-78 = system: SNB-78
BT-549 = system: BT-549
COLO 205 = system: COLO 205
SF-268 = system: SF-268
UO-31 = system: UO-31
A549 = system: A549
T47D = system: T47D
HOP-92 = system: HOP-92
MOLT-4 = system: MOLT-4
OVCAR-5 = system: OVCAR-5
EKVX = system: EKVX
NCI-H522 = system: NCI-H522
UACC-62 = system: UACC-62
HCT-116 = system: HCT-116
SN12C = system: SN12C
CCRF-CEM = system: CCRF-CEM
M19-MEL = system: M19-MEL
NCI/ADR-RES = system: NCI/ADR-RES

Measured: GI50

CCOC(=O)c1c(CN2CCNCC2)nc2ccc(Cl)cc2c1-c1ccccc1
inactive: KM-20L2 2.64 µM | HOP-62 6.95 µM | SNB-78 8.18 µM | BT-549 13.1 µM | COLO 205 2.03 µM | SF-268 5.6 µM | UO-31 3.32 µM | A549 5.31 µM | T47D 4.82 µM | HOP-92 1.17 µM | MOLT-4 1.86 µM | OVCAR-5 19.5 µM | EKVX 9.38 µM | NCI-H522 4.38 µM | UACC-62 1.77 µM | HCT-116 3.07 µM | SN12C 4.92 µM | CCRF-CEM 2.51 µM | M19-MEL 1.9 µM

CCOC1=C2N=C(C(CC)c3ccc(F)cc3)N=C2C(=O)c2ccccc21 (stereo unspecified)
inactive: KM-20L2 19 µM | HOP-62 46.3 µM | SNB-78 27.8 µM | COLO 205 22.3 µM | SF-268 19.7 µM | UO-31 13.2 µM | A549 22.1 µM | HOP-92 17.7 µM | MOLT-4 18 µM | OVCAR-5 26.6 µM | EKVX 26.9 µM | NCI-H522 22.3 µM | UACC-62 10.9 µM | HCT-116 23.9 µM | SN12C 16.3 µM | CCRF-CEM 40 µM | M19-MEL 24 µM

O=[N+]([O-])c1cc(C(F)(F)F)cc2n[se]nc12
inactive: KM-20L2 6.81 µM | HOP-62 15.7 µM | SNB-78 12.3 µM | BT-549 2.81 µM | COLO 205 2.03 µM | SF-268 5 µM | UO-31 5.53 µM | A549 11.4 µM | T47D 3.17 µM | HOP-92 2.26 µM | NCI/ADR-RES 2.12 µM | MOLT-4 1.48 µM | OVCAR-5 13.1 µM | EKVX 5.3 µM | NCI-H522 3.13 µM | UACC-62 4.15 µM | HCT-116 1.75 µM | SN12C 4.88 µM | CCRF-CEM 1.68 µM | M19-MEL 3.33 µM

CC1=C2C(=O)[C@H]3[C@@H](CC=C4C[C@@H](O)CC[C@@]43C)[C@@H]2CC[C@]12O[C@@H]1C[C@H](C)CN[C@H]1[C@H]2C [JERVINE]
inactive: KM-20L2 28.9 µM | HOP-62 > 39.5 µM | SNB-78 19.2 µM | BT-549 > 100 µM | COLO 205 > 75.5 µM | SF-268 > 46.6 µM | UO-31 > 40.1 µM | A549 > 43 µM | T47D > 100 µM | HOP-92 11.9 µM | NCI/ADR-RES > 100 µM | MOLT-4 > 82.4 µM | OVCAR-5 > 100 µM | EKVX > 45.9 µM | NCI-H522 > 42.2 µM | UACC-62 > 53.7 µM | HCT-116 > 46 µM | SN12C > 43.4 µM | CCRF-CEM > 63.4 µM | M19-MEL 29.4 µM
